Legend:
JAK1 = target: T1, JAK1 (Homo sapiens, UniProt P23458); assay: Kinobeads assay with antibody detection, JAK1; type: binding; conditions: mixed Molt4/Ramos lysate, read-out: JAK1 inhibition value (IC50)
T1 construct: endogenous in cells; host or cells: mixed Molt4/Ramos cell lysate (1:2)
Description: (§1) The compounds of the present invention as described in the previous examples were tested in a Kinobeads™ assay as described for ZAP-70 (WO-A 2007/137867). Briefly, test compounds (at various concentrations) and the affinity matrix with the immobilized aminopyrido-pyrimidine ligand 24 were added to cell lysate aliquots and allowed to bind to the proteins in the lysate sample. After the incubation time the beads with captured proteins were separated from the lysate. Bound proteins were then eluted and the presence of JAK1; JAK2, JAK3 and TYK2 was detected and quantified using specific antibodies in a dot blot procedure and the Odyssey infrared detection system. Dose response curves for individual kinases were generated and IC50 values calculated. Kinobeads™ assays for ZAP-70 (WO-A 2007/137867) and for kinase selectivity profiling (WO-A 2006/134056) have been previously described.
(§2) 5×DP buffer: 250 mM Tris-HCl pH 7.4, 25% Glycerol, 7.5 mM MgCl2, 750 mM NaCl, 5 mM Na3VO4; filter the 5×DP buffer through a 0.22 μm filter and store in aliquot at −80° C. The 5×DP buffer is diluted with H2O to 1×DP buffer containing 1 mM DTT and 25 mM NaF.
(§3) Stock solutions of test compounds were prepared in DMSO. In a 96 well plate 30 μL solution of diluted test compounds at 5 mM in DMSO were prepared. Starting with this solution a 1:3 dilution series (9 steps) was prepared. For control experiments (no test compound) a buffer containing 2% DMSO was used.
(§4) Molt4 cells (ATCC catalogue number CRL-1582) and Ramos cells (ATCC catalogue number CRL-1596) were grown in 1 L Spinner flasks (Integra Biosciences, #182101) in suspension in RPMI 1640 medium (Invitrogen, #21875-034) supplemented with 10% Fetal Bovine Serum (Invitrogen) at a density between 0.15×10^6 and 1.2×10^6 cells/mL. Cells were harvested by centrifugation, washed once with 1×PBS buffer (Invitrogen, #14190-094) and cell pellets were frozen in liquid nitrogen and subsequently stored at −80° C. Cells were homogenized in a Potter S homogenizer in lysis buffer: 50 mM Tris-HCl, 0.8% NP40, 5% glycerol, 150 mM NaCl, 1.5 mM MgCl2, 25 mM NaF, 1 mM sodium vanadate, 1 mM DTT, pH 7.5. One complete EDTA-free tablet (protease inhibitor cocktail, Roche Diagnostics, 1873580) per 25 mL buffer was added. The material was dounced 10 times using a mechanized POTTER S, transferred to 50 mL falcon tubes, incubated for 30 minutes on ice and spun down for 10 minutes at 20,000 g at 4° C. (10,000 rpm in Sorvall SLA600, precooled). The supernatant was transferred to an ultracentrifuge (UZ)-polycarbonate tube (Beckmann, 355654) and spun for 1 hour at 100.000 g at 4° C. (33.500 rpm in Ti50.2, precooled). The supernatant was transferred again to a fresh 50 mL falcon tube, the protein concentration was determined by a Bradford assay (BioRad) and samples containing 50 mg of protein per aliquot were prepared. The samples were immediately used for experiments or frozen in liquid nitrogen and stored frozen at −80° C.
(§5) Cell lysate (approximately 50 mg protein per plate) was thawed in a water bath at room temperature and then stored on ice. To the thawed cell lysate 1×DP 0.8% NP40 buffer containing protease inhibitors (1 tablet for 25 mL buffer; EDTA-free protease inhibitor cocktail; Roche. Diagnostics 1873580) was added in order to reach a final protein concentration of 10 mg/mL total protein. The diluted cell lysate was stored on ice. Mixed Molt4Ramos lysate was prepared by combining one volume of Molt4 lysate and two volumes of Ramos lysate (ratio 1:2).
(§6) Plates were sealed and incubated for 3 hours in a cold room on a plate shaker (Heidolph tiramax 1000) at 750 rpm. Afterwards the plate was washed 3 times with 230 μL washing buffer (1×DP 0.4% NP40). The filter plate was placed on top of a collection plate (Greiner bio-one, PP-microplate 96 well V-shape, 65120) and the beads were then eluted with 20 μL of sample buffer (100 mM Tris, pH 7.4, 4% SDS, 0.00025% bromophenol blue, 20% glycerol, 50 mM DTT). […]

JAK3 = target: T2, JAK3 (Homo sapiens, UniProt P52333); assay: Kinobeads assay with antibody detection, JAK3; type: binding; parameters: endogenous in cells; host or cells: mixed Molt4/Ramos cell lysate (1:2); conditions: mixed Molt4/Ramos lysate, read-out: JAK3 inhibition value (IC50)
T2 sequence (P52333 1-1124): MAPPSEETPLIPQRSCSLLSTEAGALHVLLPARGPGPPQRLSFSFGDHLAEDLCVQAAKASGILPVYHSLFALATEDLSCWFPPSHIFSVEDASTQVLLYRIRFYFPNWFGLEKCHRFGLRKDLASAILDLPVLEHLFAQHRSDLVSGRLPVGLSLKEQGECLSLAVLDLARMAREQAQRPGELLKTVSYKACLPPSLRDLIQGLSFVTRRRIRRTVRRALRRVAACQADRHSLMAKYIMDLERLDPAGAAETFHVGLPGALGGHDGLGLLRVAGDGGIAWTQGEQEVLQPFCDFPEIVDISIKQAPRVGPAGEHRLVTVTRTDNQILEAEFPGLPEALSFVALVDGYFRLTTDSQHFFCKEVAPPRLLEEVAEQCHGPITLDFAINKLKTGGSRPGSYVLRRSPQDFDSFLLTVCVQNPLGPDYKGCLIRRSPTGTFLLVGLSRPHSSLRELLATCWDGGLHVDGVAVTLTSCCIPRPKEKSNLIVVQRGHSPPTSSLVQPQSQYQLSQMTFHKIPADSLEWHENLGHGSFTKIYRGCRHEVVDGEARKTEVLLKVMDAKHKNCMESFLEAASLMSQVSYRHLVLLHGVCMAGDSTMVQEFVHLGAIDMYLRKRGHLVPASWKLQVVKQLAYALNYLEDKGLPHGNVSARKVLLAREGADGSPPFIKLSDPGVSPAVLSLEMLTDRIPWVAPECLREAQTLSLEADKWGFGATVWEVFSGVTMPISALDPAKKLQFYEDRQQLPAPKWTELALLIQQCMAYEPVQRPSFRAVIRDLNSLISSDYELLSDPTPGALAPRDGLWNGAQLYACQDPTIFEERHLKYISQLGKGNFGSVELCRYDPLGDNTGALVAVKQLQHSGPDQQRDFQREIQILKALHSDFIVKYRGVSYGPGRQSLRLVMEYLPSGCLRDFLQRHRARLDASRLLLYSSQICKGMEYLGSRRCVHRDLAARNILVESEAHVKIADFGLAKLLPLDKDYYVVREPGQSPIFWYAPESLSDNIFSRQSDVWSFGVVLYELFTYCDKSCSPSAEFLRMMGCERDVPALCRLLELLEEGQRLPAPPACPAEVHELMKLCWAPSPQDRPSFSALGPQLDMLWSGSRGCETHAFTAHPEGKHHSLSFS
Description: as §1, §2, §3, §4, §5, §6

T1 sequence (P23458 whole entry): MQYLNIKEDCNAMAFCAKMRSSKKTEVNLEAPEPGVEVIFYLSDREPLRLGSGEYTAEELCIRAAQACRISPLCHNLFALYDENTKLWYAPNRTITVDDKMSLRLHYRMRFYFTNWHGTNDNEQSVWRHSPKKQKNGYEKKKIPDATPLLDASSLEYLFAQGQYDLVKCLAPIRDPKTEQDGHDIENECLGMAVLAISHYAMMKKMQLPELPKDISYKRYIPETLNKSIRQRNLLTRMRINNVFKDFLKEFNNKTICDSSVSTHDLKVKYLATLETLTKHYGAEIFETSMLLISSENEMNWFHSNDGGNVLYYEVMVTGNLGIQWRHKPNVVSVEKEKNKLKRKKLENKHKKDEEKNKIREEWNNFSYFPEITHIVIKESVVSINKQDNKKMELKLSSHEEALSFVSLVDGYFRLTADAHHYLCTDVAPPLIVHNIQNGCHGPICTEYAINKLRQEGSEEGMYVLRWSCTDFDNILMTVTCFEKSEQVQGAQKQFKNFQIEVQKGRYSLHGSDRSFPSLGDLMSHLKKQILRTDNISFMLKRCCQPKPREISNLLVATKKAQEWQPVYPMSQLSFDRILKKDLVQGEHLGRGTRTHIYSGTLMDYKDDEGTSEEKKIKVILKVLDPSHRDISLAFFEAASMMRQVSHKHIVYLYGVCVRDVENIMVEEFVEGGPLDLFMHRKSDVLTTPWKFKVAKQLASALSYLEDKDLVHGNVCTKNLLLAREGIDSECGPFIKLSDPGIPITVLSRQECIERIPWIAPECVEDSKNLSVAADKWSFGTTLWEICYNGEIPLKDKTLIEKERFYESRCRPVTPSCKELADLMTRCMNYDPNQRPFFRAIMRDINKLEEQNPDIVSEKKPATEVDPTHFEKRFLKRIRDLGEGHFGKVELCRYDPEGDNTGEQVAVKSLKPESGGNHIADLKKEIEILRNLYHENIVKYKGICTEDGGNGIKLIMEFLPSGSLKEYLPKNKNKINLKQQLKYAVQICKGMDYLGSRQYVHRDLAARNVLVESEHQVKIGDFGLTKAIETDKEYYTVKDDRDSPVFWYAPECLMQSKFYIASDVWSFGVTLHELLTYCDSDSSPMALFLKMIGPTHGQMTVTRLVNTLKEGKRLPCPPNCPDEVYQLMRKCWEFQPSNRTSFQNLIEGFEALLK

| IC50 (JAK1) | IC50 (JAK3) | Compound |
| --- | --- | --- |
| > 10000 nM | 5 nM | C=CC(=O)Nc1cccc(Cn2ncc3cnc(Nc4cnn(C)c4)nc32)c1 [Example 1, N-(3-((6-((1-Methyl-1H-pyrazol-4-yl)amino)-1H-pyrazolo[3,4-d]pyrimidin-1-yl)methyl)phenyl)acrylamide] |
| > 10000 nM | 206 nM | CC(=O)Nc1cccc(Cn2ncc3cnc(Nc4cnn(C)c4)nc32)c1 [compound 2, N-(3-((6-((1-methyl-1H-pyrazol-4-yl)amino)-1H-pyrazolo[3,4-d]pyrimidin-1-yl)methyl)phenyl)acetamide, reference compound] |
| > 10000 nM | 57 nM | C=C(C)C(=O)Nc1cccc(Cn2ncc3cnc(Nc4cnn(C)c4)nc32)c1 [Example 5, N-(3-((6-((1-Methyl-1H-pyrazol-4-yl)amino)-1H-pyrazolo[3,4-d]pyrimidin-1-yl)methyl)phenyl)methacrylamide] |
| > 10000 nM | 16 nM | C=CC(=O)Nc1cc(Cn2ncc3cnc(Nc4cnn(C)c4)nc32)ccc1F [Example 2, […]] |
| > 10000 nM | 10 nM | C#CC(=O)Nc1cccc(Cn2ncc3cnc(Nc4cnn(C)c4)nc32)c1 [Example 3, N-(3-((6-((1-Methyl-1H-pyrazol-4-yl)amino)-1H-pyrazolo[3,4-d]pyrimidin-1-yl)methyl)phenyl)propiolamide] |
| 7690 nM | 12 nM | C=CS(=O)(=O)Nc1cccc(Cn2ccc3cnc(Nc4cnn(C)c4)nc32)c1 [Example 7, N-(3-((2-((1-Methyl-1H-pyrazol-4-yl)amino)-7H-pyrrolo[2,3-d]pyrimidin-7-yl)methyl)phenyl)ethenesulfonamide] |
| > 10000 nM | 10 nM | C=CS(=O)(=O)Nc1cccc(Cn2ncc3cnc(Nc4cnn(C)c4)nc32)c1 [Example 4, N-(3-((6-((1-Methyl-1H-pyrazol-4-yl)amino)-1H-pyrazolo[3,4-d]pyrimidin-1-yl)methyl)phenyl)ethenesulfonamide] |

— US20140323504A1, “Pyrazolo[4,3-c]Pyridine Derivatives As Kinase Inhibitors” (Cellzome Limited, priority 2011, published 2014)
